Source: patent publication US5326764A, “Method for the treatment of hyperproliferative disorders” (Yale University, priority 1993, dated 1994)

Tested on: human neonatal foreskin keratinocytes
Assay: Keratinocyte growth by cell counting after seven days
Assay type: cell-based
Conditions: 168 h

Compound: O=c1[nH]cc(F)c(=O)[nH]1 [5-fluorouracil]
- inhibition at 0.5 µM (read-out: inhibition of cell growth): 30%

Compound: CN(Cc1cnc2nc(N)nc(N)c2n1)c1ccc(C(=O)N[C@@H](CCC(=O)O)C(=O)O)cc1 [methotrexate]
- inhibition at 0.1 µM (read-out: inhibition of growth of keratinocytes): 32%
